Data taken from ChEMBL document CHEMBL5370652, “Ligand Sulfur Oxidation State Progressively Alters Galectin-3-Ligand Complex Conformations To Induce Affinity-Influencing Hydrogen Bonds” (J Med Chem, 2023).

How the values were obtained:
Galectin-3 [1] = biological target: T1, Galectin-3 (Homo sapiens, UniProt P17931); assay: Binding affinity to wild type Galectin-3 (unknown origin) assessed as dissociation constant by fluorescence polarization assay
Galectin-3 [2] = biological target: T1, Galectin-3
Description: Binding affinity to Galectin-3 (unknown origin) assessed as gibbs free energy change by isothermal titration calorimetry analysis

Galectin-3 [3] = biological target: T1, Galectin-3; assay: Binding affinity to Galectin-3 (unknown origin) assessed as dissociation constant by fluorescence polarization assay
Galectin-3 [4] = biological target: T1, Galectin-3; remark: listed apart in the source
Description: Binding affinity to Galectin-3 (unknown origin) assessed as change in enthalpy by isothermal titration calorimetry analysis

Galectin-3 [5] = biological target: T1, Galectin-3; remark: listed apart in the source
Description: Binding affinity to Galectin-3 (unknown origin) assessed as change in entropy by isothermal titration calorimetry analysis

T1 sequence (P17931 whole entry): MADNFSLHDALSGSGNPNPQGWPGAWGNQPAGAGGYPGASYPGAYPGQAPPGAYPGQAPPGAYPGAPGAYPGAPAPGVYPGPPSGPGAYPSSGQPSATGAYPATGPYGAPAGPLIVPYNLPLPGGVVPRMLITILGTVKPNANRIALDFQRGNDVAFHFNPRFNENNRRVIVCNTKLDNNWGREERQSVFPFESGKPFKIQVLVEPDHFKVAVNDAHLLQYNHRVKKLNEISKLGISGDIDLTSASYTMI

Question: For `Cc1ccc(S[C@@H]2O[C@H](CO)[C@H](O)[C@H](n3cc(S(=O)(=O)c4ccccc4)nn3)[C@H]2O)cc1`, which Kd (Galectin-3 [1]) is on record?
Answer: 79 µM

Question: Which results are given for `[O-][S+](c1ccccc1)c1cn([C@H]2[C@@H](O)[C@@H](CO)O[C@@H](S[C@@H]3O[C@H](CO)[C@@H](O)[C@H](O)[C@H]3O)[C@@H]2O)nn1` (stereo not given in full)?
Answer: deltaG (Galectin-3 [2]): -5.55 kcal/mol; Kd (Galectin-3 [3]): 55.5 µM; deltaH (Galectin-3 [4]): -6.17 kcal/mol; -TdeltaS (Galectin-3 [5]): 0.62 kcal/mol
